From patent publication US20240279220A1, “INDOLE COMPOUNDS AND METHODS OF USE” (Genzyme Corporation, priority 2021, published 2024)

What was measured:
CFTR = molecular target: T1, CFTR (Homo sapiens, UniProt P13569, DEL508-508); assay: TECC24 recording of CFTR-mediated transepithelial chloride transport in ΔF508 homozygous CF-HBE cells; assay type: cell-based; conditions: 10 μM test agent, 48 hours incubation, AUC of forskolin-stimulated IEQ divided by vehicle AUC, primary CF-HBE cells
T1 construct: Primary human bronchial epithelial cells from a ΔF508 homozygous CF donor; host or cells: primary human bronchial epithelial cells (CF-HBE), ΔF508 homozygous donor
T1 sequence (P13569 with tags, fused parts or gaps DEL508-508): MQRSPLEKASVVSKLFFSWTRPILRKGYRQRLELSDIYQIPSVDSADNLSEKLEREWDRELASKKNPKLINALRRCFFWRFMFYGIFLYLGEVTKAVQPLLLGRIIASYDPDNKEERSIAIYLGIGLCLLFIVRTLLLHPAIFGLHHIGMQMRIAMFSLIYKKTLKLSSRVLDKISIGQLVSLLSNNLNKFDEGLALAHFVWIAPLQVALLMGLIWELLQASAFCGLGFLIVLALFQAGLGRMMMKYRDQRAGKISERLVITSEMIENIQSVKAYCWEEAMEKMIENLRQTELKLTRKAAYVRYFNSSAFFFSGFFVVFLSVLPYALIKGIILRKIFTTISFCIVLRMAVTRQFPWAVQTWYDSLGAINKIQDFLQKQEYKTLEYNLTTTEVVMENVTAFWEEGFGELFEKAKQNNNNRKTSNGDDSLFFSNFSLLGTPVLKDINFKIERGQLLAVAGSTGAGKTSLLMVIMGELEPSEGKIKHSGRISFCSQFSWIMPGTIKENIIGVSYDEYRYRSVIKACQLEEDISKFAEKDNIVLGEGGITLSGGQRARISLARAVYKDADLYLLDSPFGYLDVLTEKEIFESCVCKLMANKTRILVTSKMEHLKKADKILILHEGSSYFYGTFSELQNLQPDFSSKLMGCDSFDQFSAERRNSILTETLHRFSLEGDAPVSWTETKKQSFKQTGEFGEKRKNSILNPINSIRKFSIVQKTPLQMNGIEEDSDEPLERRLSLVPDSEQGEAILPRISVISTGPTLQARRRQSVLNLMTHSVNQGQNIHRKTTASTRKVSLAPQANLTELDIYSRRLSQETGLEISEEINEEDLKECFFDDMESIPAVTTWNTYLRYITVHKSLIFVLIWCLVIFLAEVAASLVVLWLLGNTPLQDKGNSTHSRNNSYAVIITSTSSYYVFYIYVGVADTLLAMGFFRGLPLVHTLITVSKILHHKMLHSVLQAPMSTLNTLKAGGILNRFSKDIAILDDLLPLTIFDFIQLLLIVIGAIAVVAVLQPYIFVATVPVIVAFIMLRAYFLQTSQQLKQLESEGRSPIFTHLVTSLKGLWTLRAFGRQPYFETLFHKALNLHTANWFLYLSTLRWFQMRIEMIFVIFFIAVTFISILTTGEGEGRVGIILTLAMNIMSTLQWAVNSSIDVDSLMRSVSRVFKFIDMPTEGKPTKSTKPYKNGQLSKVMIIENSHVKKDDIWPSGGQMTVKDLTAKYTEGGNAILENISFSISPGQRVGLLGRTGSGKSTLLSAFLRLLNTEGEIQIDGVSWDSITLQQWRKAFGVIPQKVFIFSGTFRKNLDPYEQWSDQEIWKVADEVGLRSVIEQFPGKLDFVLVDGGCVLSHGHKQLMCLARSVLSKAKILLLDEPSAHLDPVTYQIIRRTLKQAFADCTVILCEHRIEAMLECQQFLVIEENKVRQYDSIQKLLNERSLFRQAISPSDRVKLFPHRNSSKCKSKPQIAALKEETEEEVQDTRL
Method in brief: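 ΔF508 homozygous primary bronchial epithelia exposed to compound 48 h at 36.5 °C, then transepithelial voltage and resistance recorded in pH 7.4 buffer with benzamil (10 μM), forskolin (10 μM) stimulation and CFTRinh-172 (20 μM) stop. Equivalent Cl⁻ current AUC vs vehicle gives efficacy; EC50 fitted with Hill slope fixed at 1.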

NBD1/3D = assay: Aggregation analysis using differential static light scattering (DSLS), NBD1 thermal stability; assay type: binding, Human; conditions: ΔTagg versus DMSO control; compound at 100 μM
Method in brief: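 Purified NBD1 at 0.2 mg/ml in S200 buffer (pH 7.6, 2 mM ATP, 5 mM MgCl2, 1% glycerol) was heated with compound at 1 °C/min to 70 °C. Tagg taken from the light-scattering curve inflection point; ΔTagg = compound Tagg minus mean DMSO control Tagg.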

## CC(C)(O)c1nc(-c2cc(Oc3c(F)cc4[nH]ccc4c3F)ccc2F)[nH]c1Cc1cccc(CCC(=O)O)c1F [Example 280, 3-(3-((2-(5-((4,6-Difluoro-1H-indol-5-yl)oxy)-2-fluorophenyl)-4-(2-hydroxypropan-2-yl)-1H-imidazol-5-yl)methyl)-2-fluorophenyl)propanoic acid]
CFTR
  TECC24 @ 10 μM over DMSO (AUC fold over DMSO): A (“A” refers to AUC @10 uM >= 12)
NBD1/3D
  DSLS NBD1/3D Human Stability delta-T (° C.) @ 100 (μM): B (B: 5-10° C.)
